From ChEMBL document CHEMBL3885881, “DrugMatrix”

Legend:
[1] = species on record: Rattus norvegicus; format: toxicity, organism-based, Sprague-Dawley; settings: in vivo, po, 1868 mg/kg, 24 h, route oral GAVAGE, dose level High, time 1 day, vehicle .5 % CMC
Description: DrugMatrix - Regimen: Single

[2] = species on record: Rattus norvegicus; experiment: DrugMatrix - Regimen: Daily Repeat; format: toxicity, organism-based, Sprague-Dawley; set-up: regimen Daily Repeat, gender Male, age 6-8 weeks; settings: in vivo, po, 1868 mg/kg, route oral GAVAGE, dose level High, vehicle .5 % CMC
[3] = 72 h, tissue Plasma, time 3 day
[4] = 120 h, tissue Blood, time 5 day

Structure (SMILES): CC(=O)OCc1ccccc1 [E1501]
- ABSOLUTE EOSINOPHIL ([1]; tissue Blood): 109.33 CELLS/uL
- ABSOLUTE LYMPHOCYTE ([1]; tissue Blood): 12916.67 CELLS/uL
- ABSOLUTE MONOCYTE ([1]; tissue Blood): 245.33 CELLS/uL
- ABSOLUTE SEGMENTED NEUTROPHIL ([1]; tissue Blood): 1062 CELLS/uL
- BASOPHIL ([1]; tissue Blood): 0%
- EOSINOPHIL ([1]; tissue Blood): 0.67%
- ERYTHROCYTE COUNT ([1]; tissue Blood): 5.87 x10E6/uL
- HEMATOCRIT ([1]; tissue Blood): 35.33%
- HEMOGLOBIN ([1]; tissue Blood): 12.87 G/DL
- LEUKOCYTE COUNT ([1]; tissue Blood): 14.33 x10E3/uL
- LYMPHOCYTE ([1]; tissue Blood): 90.67%
- MEAN CORPUSCULAR HEMOGLOBIN ([1]; tissue Blood): 21.93 pg
- MEAN CORPUSCULAR HEMOGLOBIN CONCENTRATION ([1]; tissue Blood): 36.4 G/DL
- MEAN CORPUSCULAR VOLUME ([1]; tissue Blood): 60.27 fL
- MONOCYTE ([1]; tissue Blood): 1.67%
- NEUTROPHIL ([1]; tissue Blood): 7%
- NUCLEATED RED BLOOD CELLS ([1]; tissue Blood): 0 /100WBC
- PLATELET COUNT ([1]; tissue Blood): 831 x10E3/uL
- ALANINE AMINOTRANSFERASE ([1]; tissue Plasma): 51 u/L
- ALBUMIN ([1]; tissue Plasma): 4.13 G/DL
- ALKALINE PHOSPHATASE ([1]; tissue Plasma): 348.67 u/L
- ASPARTATE AMINOTRANSFERASE ([1]; tissue Plasma): 87 u/L
- BLOOD UREA NITROGEN ([1]; tissue Plasma): 12.33 mg/dL
- CARBON DIOXIDE ([1]; tissue Plasma): 26 mmol/L
- CHLORIDE ([1]; tissue Plasma): 101.67 MEQ/L
- CHOLESTEROL ([1]; tissue Plasma): 53 mg/dL
- CREATININE ([1]; tissue Plasma): 0.24 mg/dL
- GLUCOSE ([1]; tissue Plasma): 189 mg/dL
- LACTATE DEHYDROGENASE ([1]; tissue Plasma): 338.67 u/L
- LIPASE ([1]; tissue Plasma): 10 u/L
- PHOSPHORUS ([1]; tissue Plasma): 14.53 mg/dL
- POTASSIUM ([1]; tissue Plasma): 6.76 MEQ/L
- SODIUM ([1]; tissue Plasma): 145.77 MEQ/L
- TOTAL BILIRUBIN ([1]; tissue Plasma): 0.13 mg/dL
- TOTAL PROTEIN ([1]; tissue Plasma): 6.1 G/DL
- URIC ACID ([1]; tissue Plasma): 2.13 mg/dL
- ABSOLUTE BASOPHIL ([2]; 72 h, tissue Blood, time 3 day): 0 CELLS/uL
- ABSOLUTE EOSINOPHIL ([2]; 72 h, tissue Blood, time 3 day): 53 CELLS/uL
- ABSOLUTE LYMPHOCYTE ([2]; 72 h, tissue Blood, time 3 day): 16547 CELLS/uL
- ABSOLUTE MONOCYTE ([2]; 72 h, tissue Blood, time 3 day): 404 CELLS/uL
- ABSOLUTE SEGMENTED NEUTROPHIL ([2]; 72 h, tissue Blood, time 3 day): 3196 CELLS/uL
- BASOPHIL ([2]; 72 h, tissue Blood, time 3 day): 0%
- EOSINOPHIL ([2]; 72 h, tissue Blood, time 3 day): 0.5%
- ERYTHROCYTE COUNT ([2]; 72 h, tissue Blood, time 3 day): 6.19 x10E6/uL
- HEMATOCRIT ([2]; 72 h, tissue Blood, time 3 day): 37.45%
- HEMOGLOBIN ([2]; 72 h, tissue Blood, time 3 day): 13.25 G/DL
- LEUKOCYTE COUNT ([2]; 72 h, tissue Blood, time 3 day): 20.2 x10E3/uL
- LYMPHOCYTE ([2]; 72 h, tissue Blood, time 3 day): 75.5%
- MEAN CORPUSCULAR HEMOGLOBIN ([2]; 72 h, tissue Blood, time 3 day): 21.45 pg
- MEAN CORPUSCULAR HEMOGLOBIN CONCENTRATION ([2]; 72 h, tissue Blood, time 3 day): 35.4 G/DL
- MEAN CORPUSCULAR VOLUME ([2]; 72 h, tissue Blood, time 3 day): 60.6 fL
- MONOCYTE ([2]; 72 h, tissue Blood, time 3 day): 2%
- NEUTROPHIL ([2]; 72 h, tissue Blood, time 3 day): 22%
- NUCLEATED RED BLOOD CELLS ([2]; 72 h, tissue Blood, time 3 day): 0 /100WBC
- PLATELET COUNT ([2]; 72 h, tissue Blood, time 3 day): 1224 x10E3/uL
- ALANINE AMINOTRANSFERASE [2, 3]: 60 u/L
- ALBUMIN [2, 3]: 4.7 G/DL
- ALKALINE PHOSPHATASE [2, 3]: 462 u/L
- ASPARTATE AMINOTRANSFERASE [2, 3]: 177 u/L
- BLOOD UREA NITROGEN [2, 3]: 54 mg/dL
- CARBON DIOXIDE [2, 3]: 24 mmol/L
- CHLORIDE [2, 3]: 92.5 MEQ/L
- CHOLESTEROL [2, 3]: 57 mg/dL
- CREATININE [2, 3]: 0.49 mg/dL
- GLUCOSE [2, 3]: 276 mg/dL
- LACTATE DEHYDROGENASE [2, 3]: 270.5 u/L
- LIPASE [2, 3]: 9.5 u/L
- PHOSPHORUS [2, 3]: 16.1 mg/dL
- POTASSIUM [2, 3]: 5.06 MEQ/L
- SODIUM [2, 3]: 143.6 MEQ/L
- TOTAL BILIRUBIN [2, 3]: 0.25 mg/dL
- TOTAL PROTEIN [2, 3]: 7 G/DL
- URIC ACID [2, 3]: 2 mg/dL
- ABSOLUTE BASOPHIL [2, 4]: 0 CELLS/uL
- ABSOLUTE EOSINOPHIL [2, 4]: 243.33 CELLS/uL
- ABSOLUTE LYMPHOCYTE [2, 4]: 9225.33 CELLS/uL
- ABSOLUTE MONOCYTE [2, 4]: 248.33 CELLS/uL
- ABSOLUTE SEGMENTED NEUTROPHIL [2, 4]: 783 CELLS/uL
- BASOPHIL [2, 4]: 0%
- EOSINOPHIL [2, 4]: 2.33%
- ERYTHROCYTE COUNT [2, 4]: 6.51 x10E6/uL
- HEMATOCRIT [2, 4]: 38.67%
- HEMOGLOBIN [2, 4]: 14.03 G/DL
- LEUKOCYTE COUNT [2, 4]: 10.5 x10E3/uL
- LYMPHOCYTE [2, 4]: 88%
- MEAN CORPUSCULAR HEMOGLOBIN [2, 4]: 21.53 pg
- MEAN CORPUSCULAR HEMOGLOBIN CONCENTRATION [2, 4]: 36.3 G/DL
- MEAN CORPUSCULAR VOLUME [2, 4]: 59.37 fL
- MONOCYTE [2, 4]: 2.33%
- NEUTROPHIL [2, 4]: 7.33%
- NUCLEATED RED BLOOD CELLS [2, 4]: 0 /100WBC
